# Values joined by “and” are separate entries in the source; they are usually repeats but may differ in a detail not shown here. Identical values can stand only once. Counter-ions that a name gives are not always drawn.
# Test system: 5-HT release in the rat prefrontal cortex
# Experiment: Microdialysis: 5-HT release in prefrontal cortex after I.P. administration
# Assay type: in vivo
# Details: for 5-HT release (% of basal levels) measured in dialysates: individual animals, hydrochloride, 3 mg/kg; for 5-HT release (% of basal levels) measured in dialysates, MEAN / 5-HT (% of respective basal) MEAN: n = 8; for 5-HT (% of respective basal) MEAN: SON-117 group 0.1 mg/kg I.P.
# Description: The aim of the study was to evaluate, using microdialysis, the effects of an intraperitoneal (I.P.) administration in rats of three different doses of SON-117 on dopamine and its metabolites, serotonin and its metabolite (5-HIAA), and norepinephrine levels in prefrontal cortex.
# Thirty-two adult male Wistar rats were used for the whole study (4 groups of eight animals planned for the study, Table 1).
# Surgery was performed on rats weighing about 300 g at the beginning of the experiments. Rats were anaesthetized with Ketamine (50 mg/kg) & Xylazine (15 mg/kg) by intramuscular administration. The animals were placed in a stereotaxic apparatus in the flat-skull position at a constant setting of −3.3 mm between ear bars and the incisor bar. The animals were treated with a local anesthesic (xylocaine 1%, Astra Zeneca) and an analgesic (Temgesic, from Schering Plough, 0.05 mg/kg, s.c.). A rostrocaudal midline incision was made with a lancet to expose the dorsal skull surface. The “stereotaxic zero” was defined by the Bregma in accordance with Paxinos and Watson's atlas (1986). A hole was drilled in the skull with a drill and the meninges were pierced with a sterile needle to implant a CMA12 guide cannula which later received the dialysis probe.
# Coordinates used for implanting guide cannula in prefrontal cortex from Bregma were anteroposterior 3.7 mm, mediolateral 0.8 mm, and dorsoventral −2 mm (top of the probe was at −5 mm). The guide cannula was fixed to the skull with two stainless steel screws (1.88 mm outside diameter) anchored. An application of dental cement was added. A plastic collar allowed each animal to be tethered to a Swivel assembly of the CMA 120 awake animal system. Following surgery, rats were kept in individual cages and allowed to recover for a minimum of 3-5 days before the experimentation. The rats were handled and put in plastic bowl for 10 min at least every day to habituate the animals to their new environment for the dialysis. An I.P. administration with saline was also performed every day.
# Dialysis probes (CMA12/3 mm, membrane, 20 kD cut-off, Carnegie Medicine, Stockholm, Sweden), were carefully washed before inserting into the guide cannula. The wash was performed with the artificial cerebrospinal fluid (aCSF) medium (NaCl 147 mM, KCl 2.7 mM, CaCl2 1.2 mM, MgCl2 0.85 mM) at room temperature. The dialysis system was then equilibrated at 20° C. at a perfusion rate of 1 μl/min with a Carnegie pump (CMA100). All catheters (FEP tubing, internal volume of 1.2 μl/10 cm, and tubing adaptors) used for microdialysis were treated in the same conditions.
# The probes duly prepared were inserted into the guide cannula and the CMA120 Swivel assembly secured to the animal using a plastic collar. Flow through the dialysis probe with aCSF was maintained at a rate of 1 μl/min during the whole experimentation. The first four fractions (corresponding to 2 hours) were discarded to avoid the effects of parenchymal disturbance and to ensure that an approximate steady-state level was reached. Fractions were then collected over a period of 8.5 h during which time the animals remained quiet. The dialysates were automatically collected with an autosampler (microfraction collector CMA 140, Carnegie Medicin) and stored at −80° C. until analysis. […] Perfusion was then maintained for 7 hours with aCSF. The dialysates (30 μl) were collected into 300 μl vials, transferred into dry ice and then kept frozen (−80° C.) until analysis. Frozen samples were shipped to a partner for analysis. At the end of the microdialysis study, a PBS with colored ink was perfused through the probe in order to visualize the dialyzed area.
# Catecholamine assay: Concentrations of dopamine, DOPAC, HVA, 5-HIAA, 5-HT, and norepinephrin were determined for each sample by HPLC coupled with electrochemical detection. […]
# [1] = SON-117 3 mg/kg IP, T1 h 30-T2 h
# [2] = SON-117 3 mg/kg IP, T1 h-T1 h 30
# [3] = SON-117 3 mg/kg IP, T2 h 30-T3 h
# [4] = SON-117 3 mg/kg IP, T2 h-T2 h 30
# [5] = SON-117 3 mg/kg IP, T3 h 30-T4 h
# [6] = SON-117 3 mg/kg IP, T3 h-T3 h 30
# [7] = SON-117 3 mg/kg IP, T4 h 30-T5 h
# [8] = SON-117 3 mg/kg IP, T4 h-T4 h 30
# [9] = SON-117 3 mg/kg IP, T5 h 30-T6 h
# [10] = SON-117 3 mg/kg IP, T5 h-T5 h 30
# [11] = SON-117 3 mg/kg IP, T6 h 30-T7 h
# [12] = SON-117 3 mg/kg IP, T6 h-T6 h 30
# [13] = SON-117 3 mg/kg IP, T-1 h 30-T-1 h (pre-administration)
smiles,measurement,setting,value
"Cc1nnc(-c2cc3c(OC[C@@H](O)CN4CCC(c5ccc(Cl)c(Cl)c5)CC4)cccc3o2)o1 [SON-117, (S)-1-(4-(3,4-dichlorophenyl)piperidino)-3-(2-(5-methyl-1,3,4-oxadiazol-2-yl)benzo(b)furan-4-yloxy)-2-propanol hydrochloride]",5-HT release (% of basal levels) measured in dialysates,"SON-117 3 mg/kg IP, T30-T1 h",204.22 % of basal levels and 162.26 % of basal levels and 105.16 % of basal levels and 123.52 % of basal levels and 121.85 % of basal levels and 66.82 % of basal levels and 90.61 % of basal levels and 103.58 % of basal levels
same,"5-HT release (% of basal levels) measured in dialysates, MEAN",[1],172.47 % of basal levels
same,5-HT release (% of basal levels) measured in dialysates,[1],272.64 % of basal levels and 219.61 % of basal levels and 141.23 % of basal levels and 159.07 % of basal levels and 135.20 % of basal levels and 206.96 % of basal levels and 105.40 % of basal levels and 139.63 % of basal levels
same,"5-HT release (% of basal levels) measured in dialysates, MEAN",[2],139.57 % of basal levels
same,5-HT release (% of basal levels) measured in dialysates,[2],205.53 % of basal levels and 81.50 % of basal levels and 112.86 % of basal levels and 110.90 % of basal levels and 126.82 % of basal levels and 127.44 % of basal levels and 170.45 % of basal levels and 181.06 % of basal levels
same,"5-HT release (% of basal levels) measured in dialysates, MEAN",[3],134.29 % of basal levels
same,5-HT release (% of basal levels) measured in dialysates,[3],158.52 % of basal levels and 136.53 % of basal levels and 84.73 % of basal levels and 118.94 % of basal levels and 141.58 % of basal levels and 105.71 % of basal levels and 168.18 % of basal levels and 160.12 % of basal levels
same,"5-HT release (% of basal levels) measured in dialysates, MEAN",[4],134.68 % of basal levels
same,5-HT release (% of basal levels) measured in dialysates,[4],125.58 % of basal levels and 163.25 % of basal levels and 90.55 % of basal levels and 143.00 % of basal levels and 145.36 % of basal levels and 158.14 % of basal levels and 116.88 % of basal levels
same,"5-HT release (% of basal levels) measured in dialysates, MEAN",[5],122.79 % of basal levels
same,5-HT release (% of basal levels) measured in dialysates,[5],112.86 % of basal levels and 166.51 % of basal levels and 77.19 % of basal levels and 149.84 % of basal levels and 120.64 % of basal levels and 72.84 % of basal levels and 159.63 % of basal levels
same,"5-HT release (% of basal levels) measured in dialysates, MEAN",[6],131.57 % of basal levels
same,5-HT release (% of basal levels) measured in dialysates,[6],178.23 % of basal levels and 97.99 % of basal levels and 78.86 % of basal levels and 198.09 % of basal levels and 131.52 % of basal levels and 75.85 % of basal levels and 160.43 % of basal levels
same,"5-HT release (% of basal levels) measured in dialysates, MEAN",[7],263.96 % of basal levels
same,5-HT release (% of basal levels) measured in dialysates,[7],119.63 % of basal levels and 88.15 % of basal levels and 75.09 % of basal levels and 174.97 % of basal levels and 117.70 % of basal levels and 1179.79 % of basal levels and 92.36 % of basal levels
same,"5-HT release (% of basal levels) measured in dialysates, MEAN",[8],118.76 % of basal levels
same,5-HT release (% of basal levels) measured in dialysates,[8],40.46 % of basal levels and 171.66 % of basal levels and 76.54 % of basal levels and 186.25 % of basal levels and 112.71 % of basal levels and 98.26 % of basal levels and 145.41 % of basal levels
same,"5-HT release (% of basal levels) measured in dialysates, MEAN",[9],150.50 % of basal levels
same,5-HT release (% of basal levels) measured in dialysates,[9],121.53 % of basal levels and 146.21 % of basal levels and 238.25 % of basal levels and 159.31 % of basal levels and 72.12 % of basal levels and 135.51 % of basal levels and 180.58 % of basal levels
same,"5-HT release (% of basal levels) measured in dialysates, MEAN",[10],176.38 % of basal levels
same,5-HT release (% of basal levels) measured in dialysates,[10],118.62 % of basal levels and 189.63 % of basal levels and 161.82 % of basal levels and 191.70 % of basal levels and 132.84 % of basal levels and 100.25 % of basal levels and 410.45 % of basal levels and 105.75 % of basal levels
same,"5-HT release (% of basal levels) measured in dialysates, MEAN",[11],172.13 % of basal levels
same,5-HT release (% of basal levels) measured in dialysates,[11],146.14 % of basal levels and 156.41 % of basal levels and 213.64 % of basal levels and 136.73 % of basal levels and 298.30 % of basal levels and 107.87 % of basal levels and 145.86 % of basal levels
same,"5-HT release (% of basal levels) measured in dialysates, MEAN",[12],156.40 % of basal levels
same,5-HT release (% of basal levels) measured in dialysates,[12],135.63 % of basal levels and 218.45 % of basal levels and 123.22 % of basal levels and 169.93 % of basal levels and 132.54 % of basal levels and 87.76 % of basal levels and 130.92 % of basal levels and 252.75 % of basal levels
same,"5-HT release (% of basal levels) measured in dialysates, MEAN","SON-117 3 mg/kg IP, T-30 min-T0 (pre-administration)",97.07 % of basal levels
same,"5-HT release (% of basal levels) measured in dialysates, MEAN",[13],101.16 % of basal levels
same,5-HT release (% of basal levels) measured in dialysates,[13],104.98 % of basal levels and 84.68 % of basal levels and 89.82 % of basal levels
same,"5-HT release (% of basal levels) measured in dialysates, MEAN","SON-117 3 mg/kg IP, T-1 h-T-30 min (pre-administration)",102.92 % of basal levels
same,"5-HT concentrations in prefrontal cortex, significant increase, max.","SON-117 3 mg/kg IP, from 2 h to 3 h",175%
same,"5-HT concentrations in prefrontal cortex, significant increase","SON-117 3 mg/kg IP, from 5.5 h to 7 h",272%
same,"5-HT release, increase still present","SON-117 3 mg/kg, 7 h after administration",183%
same,levels of 5-HT compared to the citalopram treated group (significant),"SON-117 3 mg/kg, at 1 h",slightly lower
same,"5-HT release, maximum increase observed","SON-117 3 mg/kg, at 5 h",272%
same,levels of 5-HT compared to the citalopram treated group (significant),"SON-117 3 mg/kg, at 5 h and 7 h",higher
same,5-HT (% of respective basal) MEAN,T0-T30 min,128.89 % of respective basal
same,5-HT (% of respective basal) MEAN,T30-T1 h,123.42 % of respective basal
same,5-HT (% of respective basal) MEAN,T1 h 30-T2 h,167.52 % of respective basal
same,5-HT (% of respective basal) MEAN,T1 h-T1 h 30,176.03 % of respective basal
same,5-HT (% of respective basal) MEAN,T2 h 30-T3 h,215.80 % of respective basal
same,5-HT (% of respective basal) MEAN,T2 h-T2 h 30,370.70 % of respective basal
same,5-HT (% of respective basal) MEAN,T3 h 30-T4 h,151.83 % of respective basal
same,5-HT (% of respective basal) MEAN,T3 h-T3 h 30,156.53 % of respective basal
same,5-HT (% of respective basal) MEAN,T4 h 30-T5 h,296.70 % of respective basal
same,5-HT (% of respective basal) MEAN,T4 h-T4 h 30,350.16 % of respective basal
same,5-HT (% of respective basal) MEAN,T5 h 30-T6 h,250.07 % of respective basal
same,5-HT (% of respective basal) MEAN,T5 h-T5 h 30,310.25 % of respective basal
same,5-HT (% of respective basal) MEAN,T6 h 30-T7 h,253.10 % of respective basal
same,5-HT (% of respective basal) MEAN,T6 h-T6 h 30,254.62 % of respective basal
same,5-HT (% of respective basal) MEAN,T-30 min-T0 (before administration),112.68 % of respective basal
same,5-HT (% of respective basal) MEAN,T-1 h 30-T-1 h (before administration),80.63 % of respective basal
same,5-HT (% of respective basal) MEAN,T-1 h-T-30 min (before administration),106.27 % of respective basal

# From patent publication US20250109127A1, “METHODS OF USE OF PHENOXYPROPYLAMINE COMPOUNDS TO TREAT DEPRESSION” (Minerva Neurosciences, Inc., priority 2013, published 2025)
